In ChEMBL document CHEMBL5053497, “Azaphilones from an Endophytic Penicillium sp. Prevent Neuronal Cell Death via Inhibition of MAPKs and Reduction of Bax/Bcl-2 Ratio” (2021) one finds inhibition, viability and Activity data, which are given here for seven compounds.

The source made the active and inactive calls. The rule behind the calls is not given here.

Test [1] concerns HT-22. The test can be described thus: Inhibition of glutamate-induced MAPK activation in mouse HT-22 cells assessed as reduction in p38 phosphorylation at 10 to 20 uM incubated for 11 hrs in presence of glutamate by Western blot analysis. The conditions noted are these: dose 10-20 µM. It is filed as cell-based. Background: In western blotting, separated proteins are transferred to a membrane and probed.

The subject of test [2] is HT-22. The test can be described thus: Inhibition of glutamate-induced MAPK activation in mouse HT-22 cells assessed as reduction in JNK phosphorylation at 10 to 20 uM incubated for 11 hrs in presence of glutamate by Western blot analysis. The format is cell-based. The conditions noted are these: dose 10-20 µM.
Test [3] concerns HT-22. The test can be described thus: Inhibition of glutamate-induced MAPK activation in mouse HT-22 cells assessed as reduction in ERK phosphorylation at 10 to 20 uM incubated for 11 hrs in presence of glutamate by Western blot analysis. It is filed as cell-based. The conditions noted are these: dose 10-20 µM.
Test [4] deals with HT-22. The test can be described thus: Neuroprotective activity in mouse HT-22 cells assessed as inhibition of glutamate-induced nuclear condensation at 10 to 20 uM incubated for 12 hrs in presence of glutamate by Hoechst 33342 staining based fluorescence microscopic analysis. It is filed as functional, cell-based. Conditions: dose 10-20 µM.
Test [5] relates to HT-22. The test is described as follows: Neuroprotective activity against glutamate-induced cytotoxicity in mouse HT-22 cells assessed as cell viability at 25 uM incubated for 24 hrs in presence of glutamate by EZ-CyTox reagent based analysis relative to control. Conditions: read-out: Activity. It is filed as functional.
Test [6] has as its system HT-22. The test is described as follows: Neuroprotective activity in mouse HT-22 cells assessed as reduction in glutamate-induced intracellular Ca2+ level at 10 to 20 uM incubated for 8 hrs in presence of glutamate by Fluo-4AM staining based microscopic imaging analysis. The format is functional, cell-based. The conditions noted are these: dose 10-20 µM.
The test system of test [7] is HT-22. The test is described as follows: Neuroprotective activity against glutamate-induced cytotoxicity in mouse HT-22 cells assessed as cell viability at 12.5 uM incubated for 24 hrs in presence of glutamate by EZ-CyTox reagent based analysis. The format is functional.
Test [8] has as its system HT-22. The test can be described thus: Neuroprotective activity against glutamate-induced cell death in mouse HT-22 cells assessed as reduction in Bax/Bcl2 ratio at 10 to 20 uM incubated for 11 hrs in presence of glutamate by Western blot analysis. The conditions noted are these: dose 10-20 µM. The format is functional, cell-based.
The subject of test [9] is HT-22. The test is described as follows: Neuroprotective activity against glutamate-induced cytotoxicity in mouse HT-22 cells assessed as cell viability at 50 to 100 uM incubated for 24 hrs in presence of glutamate by EZ-CyTox reagent based analysis. It is filed as functional. The conditions noted are these: dose 50-100 µM.
Test [10] has as its system HT-22. The test can be described thus: Neuroprotective activity in mouse HT-22 cells assessed as inhibition of glutamate-induced nuclear condensation at 25 uM incubated for 12 hrs in presence of glutamate by Hoechst 33342 staining based fluorescence microscopic analysis. It is filed as functional, cell-based.
Test [11] has as its system HT-22. The test is described as follows: Neuroprotective activity in mouse HT-22 cells assessed as reduction in glutamate-induced intracellular Ca2+ level at 25 uM incubated for 8 hrs in presence of glutamate by Fluo-4AM staining based microscopic imaging analysis. The format is functional, cell-based.
Test [12] deals with HT-22. The test can be described thus: Neuroprotective activity against glutamate-induced cytotoxicity in mouse HT-22 cells assessed as cell viability at 25 to 50 uM incubated for 24 hrs in presence of glutamate by EZ-CyTox reagent based analysis (reference value: 50 %). The format is functional. The conditions noted are these: dose 25-50 µM.
The subject of test [13] is HT-22. The test is described as follows: Neuroprotective activity in mouse HT-22 cells assessed as reduction in glutamate-induced intracellular Ca2+ level at 50 uM incubated for 8 hrs in presence of glutamate by Fluo-4AM staining based microscopic imaging analysis. It is filed as functional, cell-based.

As for `CC[C@H](C)/C=C(C)/C=C/C1=CC2=C(Cl)C(=O)[C@](C)(OC(C)=O)C(=O)C2=CN1` [SCLEROTIORAMINE], the inhibition result in the test on HT-22 [1], in the test with HT-22 [2], in the test with HT-22 [3] and with HT-22 [4] was “Active” in each case. Also, in the test on HT-22 [5], the viability at 25 µM was 100%. The result in the test with HT-22 [6], with HT-22 [7] and in the test with HT-22 [8] was Active.
For `CC[C@H](C)/C=C(C)/C=C/C1=CC2=C(Cl)C(=O)[C@](C)(O)[C@H](O)C2=CO1`, the outcome with HT-22 [9] was Active.
With `CC[C@@H](/C=C(C)/C=C/C1=CC2=CC(=O)[C@](C)(O)[C@H](O)[C@H]2CO1)CO`, in the test with HT-22 [10], the inhibition result was “inactive”. Also, in the test with HT-22 [11], the outcome was inactive. The Activity in the test on HT-22 [12] is recorded as 80%.
Take `CC(/C=C/C1=CC2=C(Cl)C(=O)[C@](C)(O)[C@H](O)[C@@H]2CO1)=C\[C@@H](C)CCO`: in the test with HT-22 [10], the inhibition result was “inactive”. Moreover, the result in the test on HT-22 [11] was inactive. Moreover, the Activity in the test on HT-22 [12] was found to be 80%.
Turning to `CC[C@H](C)/C=C(C)/C=C/C1=CC2=C(Cl)C(=O)[C@](C)(OC(C)=O)C(=O)C2=CN1CCO`, the inhibition result with HT-22 [10] was “Active”. Further, the viability at 25 µM in the test on HT-22 [5] worked out at 100%. In addition, the outcome in the test with HT-22 [6] was Active. Besides, the Activity with HT-22 [12] is 80%.
In the case of `CC[C@H](C)/C=C(C)/C=C/C1=CC2=CC(=O)[C@](C)(O)[C@H](O)[C@H]2CO1`, the inhibition result in the test with HT-22 [10] was “inactive”. The outcome in the test on HT-22 [11] was inactive. Further, the outcome in the test with HT-22 [9] was Active.
Consider `CC[C@H](C)/C=C(C)/C=C/C1=CC2=C(Cl)C(=O)[C@](C)(OC)C(=O)C2=CN1CCO`, for which, in the test on HT-22 [10], the inhibition entry is “Active”. Also, the viability at 25 µM in the test on HT-22 [5] was determined as 100%. Moreover, in the test with HT-22 [13], the outcome was Active. The Activity in the test on HT-22 [12] was 80%.
